Assay results from patent US20040198809A1 (priority 2001, published 2004).

Experiment: pharmacological and clinical studies (summary statements)
Assay type: in vivo
Details: presence of R-citalopram
Description: This may be shown in functional in-vivo pharmacological models and studies of 5-HT-reuptake effect and or in behaviour models, for example depression models.

Question: For CN(C)CCC[C@]1(c2ccc(F)cc2)OCc2cc(C#N)ccc21 [R-citalopram], which “impact on the effect of escitalopram” value is on record?
Answer: negative impact on the effect of escitalopram
